According to US7736624B2, “Methods and compositions for diagnostic and therapeutic targeting of COX-2” (priority 2006, dated 2010):

Experiments:
COX-1 = molecular target: T1, COX-1 (Mus musculus, UniProt P22437); assay: Macrophage assay (RAW264.7), COX-1; type: cell-based, murine
T1 sequence (P22437 1-602): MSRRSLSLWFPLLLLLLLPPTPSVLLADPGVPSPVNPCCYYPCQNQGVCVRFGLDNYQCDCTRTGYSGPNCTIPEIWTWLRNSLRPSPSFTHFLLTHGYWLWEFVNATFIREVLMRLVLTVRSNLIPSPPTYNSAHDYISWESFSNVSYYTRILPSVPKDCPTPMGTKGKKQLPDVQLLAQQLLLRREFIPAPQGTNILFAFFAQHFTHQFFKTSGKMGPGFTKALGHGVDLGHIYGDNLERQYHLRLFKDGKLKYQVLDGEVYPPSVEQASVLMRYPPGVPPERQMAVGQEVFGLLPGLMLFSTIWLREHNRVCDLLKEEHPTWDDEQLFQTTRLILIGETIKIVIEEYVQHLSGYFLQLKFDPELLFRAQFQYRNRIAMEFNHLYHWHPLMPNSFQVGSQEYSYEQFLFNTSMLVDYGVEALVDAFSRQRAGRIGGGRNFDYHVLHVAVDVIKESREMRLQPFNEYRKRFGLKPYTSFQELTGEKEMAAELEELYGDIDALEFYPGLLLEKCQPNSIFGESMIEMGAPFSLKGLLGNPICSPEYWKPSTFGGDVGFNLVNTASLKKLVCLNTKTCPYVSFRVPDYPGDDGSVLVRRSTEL
Text: Thus, NSAID derivatives that are identified as potentially useful in the methods described herein can be further tested using, for example, the RAW264.7 murine macrophage cell line. These cells are readily available (for example, from the American Type Culture Collection (ATCC), Manassas, Va., United States of America) and are easily cultured in large numbers. They normally express low levels of COX-1 and very low to undetectable levels of COX-2. Upon exposure to bacterial lipopolysaccharide (LPS), however, COX-2 levels increase dramatically over the ensuing 24 hour period, and the cells produce PGD2 and PGE2 from endogenous arachidonic acid stores (generally, ˜1 nmol/10^7 cells total PG formation). After LPS exposure, the addition of exogenous arachidonic acid results in the formation of additional PGD2 and PGE2 as a result of metabolism by the newly synthesized COX-2.
This system provides a number of approaches for testing the inhibitory potency of COX-2-selective ligands (e.g., inhibitors). In general, following LPS activation, cells can be treated for 30 minutes with the desired concentrations of candidate derivative(s) in DMSO. ^14C-arachidonic acid can be added, and the cells can be incubated for 15 minutes at 37° C. Product formation can be assessed following extraction and TLC separation of the culture medium. Alternatively, the effects of candidate derivatives on PG synthesis from endogenous arachidonic acid can be assessed by incubating cells with desired concentrations of candidate derivatives 30 minutes prior to LPS exposure. Following a 24-hour incubation, medium can be collected and extracted, and the amount of PGD2 and/or PGE2 can be assayed by gas chromatography-mass spectrometry, liquid chromatography-mass spectrometry, or ELISA.

Fluorescence in buffer = type: physicochemical; conditions: for Fluor. λem: emission; for Fluor. λex: excitation
ovine COX-1 = molecular target: T2, ovine COX-1 (Ovis aries, UniProt P05979); assay: IC50 determinations using purified enzymes (TLC assay), COX-1; type: biochemical; conditions: assayed against purified enzymes
T2 construct: can be purified from ovine seminal vesicles by standard procedures; from tissue; host or cells: ovine seminal vesicles
T2 sequence (P05979 25-600): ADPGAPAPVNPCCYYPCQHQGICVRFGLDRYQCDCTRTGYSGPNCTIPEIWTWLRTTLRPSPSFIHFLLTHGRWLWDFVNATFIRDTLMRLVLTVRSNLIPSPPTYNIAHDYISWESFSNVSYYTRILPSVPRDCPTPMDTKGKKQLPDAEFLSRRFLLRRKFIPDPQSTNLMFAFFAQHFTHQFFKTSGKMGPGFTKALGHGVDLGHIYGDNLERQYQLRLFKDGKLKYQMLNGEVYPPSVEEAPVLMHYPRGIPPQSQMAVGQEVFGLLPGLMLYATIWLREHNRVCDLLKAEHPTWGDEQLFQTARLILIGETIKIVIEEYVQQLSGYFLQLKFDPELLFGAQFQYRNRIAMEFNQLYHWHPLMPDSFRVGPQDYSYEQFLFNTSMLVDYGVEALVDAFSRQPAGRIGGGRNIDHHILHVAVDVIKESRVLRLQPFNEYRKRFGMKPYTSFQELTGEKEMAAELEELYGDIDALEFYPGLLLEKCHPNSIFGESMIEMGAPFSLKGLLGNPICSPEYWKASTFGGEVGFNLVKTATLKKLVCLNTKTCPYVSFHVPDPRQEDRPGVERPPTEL

IC50 (COX-1; Table 3, macrophage assay)	Fluor. λem (Fluorescence in buffer)	Fluor. λex (Fluorescence in buffer)	IC50 (ovine COX-1; Table 3)	IC50 (COX-1; Table 2, macrophage assay (M))	IC50 (ovine COX-1; Table 2)	Structure (SMILES)
> 2.5e-06 M	450 nm	390 nm	> 25 µM			COc1ccc2c(c1)c(CC(=O)NCCNS(=O)(=O)c1ccc(/N=N/c3ccc(N(C)C)cc3)cc1)c(C)n2C(=O)c1ccc(Cl)cc1 [Compound 27aa, N-(2-Dabsylaminoethyl)-2-{1-(4-chlorobenzoyl)-5-methoxy-2-methyl-1H-indol-3-yl}acetamide]
> 5e-06 M			> 25 µM			COc1ccc2c(c1)c(CC(=O)NCCCCNC(=O)c1ccc(C3=c4cc5c6c(c4Oc4c3cc3c7c4CCCN7CCC3)CCC[N+]=6CCC5)c(C(=O)[O-])c1)c(C)n2C(=O)c1ccc(Cl)cc1 [Compound 27eee]
> 1e-05 M	605 nm	492 nm	> 25 µM			COc1ccc2c(c1)c(CC(=O)NCCCCNC(=O)Cc1ccc(Nc3ccc([N+](=O)[O-])c4nonc34)cc1)c(C)n2C(=O)c1ccc(Cl)cc1 [Compound 27ii, N-([2-{4-(7-nitrobenzo[1,2,5]oxadiazol-4-ylamino)phenyl}acetamido]but-4-yl)-2-{1-(4-chlorobenzoyl)-5-methoxy-2-methyl-1H-indol-3-yl]acetamide]
> 5e-06 M			> 25 µM			COc1ccc2c(c1)c(CC(=O)NCCCCNC(=O)c1ccc(C(=O)O)c(-c3c4ccc(=O)cc-4oc4cc(O)ccc34)c1)c(C)n2C(=O)c1ccc(Cl)cc1 [Compound 27qq, N-[(Fluorescein-6-carboxylamido)but-4-yl]-2-[1-(4-chlorobenzoyl)-5-methoxy-2-methyl-1H-indol-3-yl)acetamide]
> 5e-06 M	731 nm	710 nm	> 25 µM			CC[N+](CC)=c1ccc2c(-c3ccccc3)c(C)c(/C=C/C=C3/N(CCCCCC(=O)NCCCCNC(=O)Cc4c(C)n(C(=O)c5ccc(Cl)cc5)c5ccc(OC)cc45)c4ccc(S(=O)(=O)[O-])cc4C3(C)C)oc-2c1 [Compound 27ttt]
> 2.5e-05 M	670 nm	618 nm	> 25 µM			CC[N+](CC)=c1ccc2nc3c(cc(NC(=O)CCOCCOCCOCCOCCNC(=O)Cc4c(C)n(C(=O)c5ccc(Cl)cc5)c5ccc(OC)cc45)c4ccccc43)oc-2c1 [Compound 27uu, N-[5-)1-{1-(4-chlorobenzoyl)-5-methoxy-2-methyl-1H-indol-3-yl}-2-6,9,12,15-tetraoxa-3-azaoctadecanamido]-9H-benzo[a]penoxazin-9-ylidene)-N-ethylethanaminium perchlorate]
> 5e-06 M	603 nm	581 nm	> 25 µM			COc1ccc2c(c1)c(CC(=O)NCCCCNC(=O)c1ccc(C(=O)[O-])c(C3=c4cc5c6c(c4Oc4c3cc3c7c4CCCN7CCC3)CCC[N+]=6CCC5)c1)c(C)n2C(=O)c1ccc(Cl)cc1 [Compound 27vv]
> 1e-06 M	493 nm	355 nm	> 25 µM			COc1ccc2c(c1)c(CC(=O)NCCNS(=O)(=O)c1cccc3c(N(C)C)cccc13)c(C)n2C(=O)c1ccc(Cl)cc1 [Compound 27x]
				> 5e-06 M	> 25 µM	COC(=O)c1cc(-c2ccc(C)cc2)n(-c2ccc(S(N)(=O)=O)cc2)n1 [Compound 30b]
